molecular target: T1, human adenosine A2b receptor (Homo sapiens, UniProt P29275); test: Cellular reporter gene (CRE-luciferase) A2b receptor antagonist assay in recombinant CHO-K1 cells stimulated with NECA; format: cell-based; conditions: recombinant CHO-K1 cell line, co-incubation with EC50 concentration of NECA, 3 hours, in some cases means, rounded to two significant digits
T1 construct: expressed in transfected cells; host or cells: CHO-K1 (Chinese Hamster Ovary) with CRE-luciferase reporter
T1 sequence (P29275 1-332): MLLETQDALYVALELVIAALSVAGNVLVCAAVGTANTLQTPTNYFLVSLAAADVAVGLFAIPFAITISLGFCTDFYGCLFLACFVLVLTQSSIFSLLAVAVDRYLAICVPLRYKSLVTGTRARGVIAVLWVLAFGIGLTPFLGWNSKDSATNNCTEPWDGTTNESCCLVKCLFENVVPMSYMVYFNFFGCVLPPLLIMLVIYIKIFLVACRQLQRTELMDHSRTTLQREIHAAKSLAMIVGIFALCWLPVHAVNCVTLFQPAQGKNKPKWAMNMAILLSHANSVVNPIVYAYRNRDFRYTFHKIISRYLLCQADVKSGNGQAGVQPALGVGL
Outline: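 CHO-K1 cells expressing human A2b receptor with a CRE-driven firefly luciferase reporter, co-incubated with test compound and NECA at its same-day EC50 concentration. Luminescence read 3 hours after NECA addition.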

Going from `CCn1c(=O)c2c(C)c(C(=O)N3CCC(O)C(O)C3)sc2n(CCC(F)(F)F)c1=O` (single isomer, unassigned) [Example 118, 6-[(3,4-Dihydroxypiperidin-1-yl)carbonyl]-3-ethyl-5-methyl-1-(3,3,3-trifluoropropyl)thieno [2,3-d]pyrimidine-2,4(1H,3H)-dione] to `CCn1c(=O)c2c(C)c(C(=O)N3CCC(O)(C(F)(F)F)CC3)sc2n(CCC(F)(F)F)c1=O` [Example 22, 3-Ethyl-6-{[4-hydroxy-4-(trifluoromethyl)piperidin-1-yl]carbonyl}-5-methyl-1-(3,3,3-trifluoropropyl)thieno[2,3-d]pyrimidine-2,4(1H,3H)-dione], the IC50 falls from 0.2 µM to 0.067 µM (3-fold). The second is the more potent here.

Compared with `CCn1c(=O)c2c(C(F)F)c(C(=O)N3CCC(O)CC3)sc2n(CCOC(F)(F)F)c1=O` [Example 123, 5-(Difluoromethyl)-3-ethyl-6-[(4-hydroxypiperidin-1-yl)carbonyl]-1-[2-(trifluoromethoxy)ethyl]thieno[2,3-d]pyrimidine-2,4(1H,3H)-dione], `CCCn1c(=O)c2c(C(F)F)c(C(=O)N3CCC(O)CC3)sc2n(CCC(F)(F)F)c1=O` [Example 141, 5-(Difluoromethyl)-6-[(4-hydroxypiperidin-1-yl)carbonyl]-3-propyl-1-(3,3,3-trifluoropropyl)thieno[2,3-d]pyrimidine-2,4(1H,3H)-dione] is 3.2-fold higher in IC50: 0.018 µM for the first, 0.057 µM for the second.

`COC(Cn1c(=O)c2c(C)c(C(=O)N3CCC(O)CC3)sc2n(CCC(F)(F)F)c1=O)c1ccccc1` (racemic) [Example 46, 6-[(4-Hydroxypiperidin-1-yl)carbonyl]-3-(2-methoxy-2-phenylethyl)-5-methyl-1-(3,3,3-trifluoropropyl)thieno[2,3-d]pyrimidine-2,4(1H,3H)-dione (racemate)] and `Cc1c(C(=O)N2CCC(O)CC2)sc2c1c(=O)n(CC(c1ccccc1)C(F)(F)F)c(=O)n2CCC(F)(F)F` (racemic) [Example 104, 6-[(4-Hydroxypiperidin-1-yl)carbonyl]-5-methyl-3-(3,3,3-trifluoro-2-phenylpropyl)-1-(3,3,3-trifluoropropyl)thieno[2,3-d]pyrimidine-2,4(1H,3H)-dione] are within 1.5-fold of each other in IC50: 0.0079 µM for the first, 0.0091 µM for the second.

`Cc1c(C(=O)N2CCC(O)(CO)CC2)sc2c1c(=O)n(CCc1ccccc1)c(=O)n2CCC(F)(F)F` [Example 68, 6-{[4-Hydroxy-4-(hydroxymethyl)piperidin-1-yl]carbonyl}-5-methyl-3-(2-phenylethyl)-1-(3,3,3-trifluoropropyl)thieno[2,3-d]pyrimidine-2,4(1H,3H)-dione] and `Cc1c(C(=O)N2CCC(O)(CO)CC2)sc2c1c(=O)n(CCc1ccccc1)c(=O)n2CCOC(F)(F)F` [Example 110, 6-{[4-Hydroxy-4-(hydroxymethyl)piperidin-1-yl]carbonyl}-5-methyl-3-(2-phenylethyl)-1-[2-(trifluoromethoxy)ethyl]thieno[2,3-d]pyrimidine-2,4(1H,3H)-dione] are within 1.5-fold of each other in IC50: 0.02 µM for the first, 0.014 µM for the second.

First: CCc1c(C(=O)N2CCNC(=O)C2)sc2c1c(=O)n(CC)c(=O)n2CCC(F)(F)F [Example 98, 3,5-Diethyl-6-[(3-oxopiperazin-1-yl)carbonyl]-1-(3,3,3-trifluoropropyl)thieno[2,3-d]pyrimidine-2,4(1H,3H)-dione]
Second: CCn1c(=O)c2c(C)c(C(=O)N3CCNC(=O)C3)sc2n(CCOC(F)(F)F)c1=O [Example 130, 3-Ethyl-5-methyl-6-[(3-oxopiperazin-1-yl)carbonyl]-1-[2-(trifluoromethoxy)ethyl]thieno[2,3-d]pyrimidine-2,4(1H,3H)-dione]
The IC50 of the first is 11-fold higher: 0.1 µM for the first, 0.009 µM for the second.

Compared with `CCCn1c(=O)c2c(C)c(C(=O)N3CCNC(=O)C3)sc2n(CCOC(F)(F)F)c1=O` [Example 96, 5-Methyl-6-[(3-oxopiperazin-1-yl)carbonyl]-3-propyl-1-[2-(trifluoromethoxy)ethyl]thieno[2,3-d]pyrimidine-2,4(1H,3H)-dione], `CCCn1c(=O)c2c(C)c(C(=O)N3CCC(C)(O)CC3)sc2n(CCC(F)(F)F)c1=O` [Example 76, 6-[(4-Hydroxy-4-methylpiperidin-1-yl)carbonyl]-5-methyl-3-propyl-1-(3,3,3-trifluoropropyl)thieno[2,3-d]pyrimidine-2,4(1H,3H)-dione] is 2.4-fold lower in IC50: 0.065 µM for the first, 0.027 µM for the second. The second is the more potent here.

Going from `O=C(c1cc2c(=O)n(CCc3ccccc3)c(=O)n(CCC(F)(F)F)c2s1)N1CCC(O)CC1` [Example 90, 6-[(4-Hydroxypiperidin-1-yl)carbonyl]-3-(2-phenylethyl)-1-(3,3,3-trifluoropropyl)thieno[2,3-d]pyrimidine-2,4(1H,3H)-dione] to `Cc1c(C(=O)N2CCC(O)CC2)sc2c1c(=O)n(CCc1cccc(F)c1)c(=O)n2CCC(F)(F)F` [Example 9, 3-[2-(3-Fluorophenyl)ethyl]-6-[(4-hydroxypiperidin-1-yl)carbonyl]-5-methyl-1-(3,3,3-trifluoropropyl)thieno[2,3-d]pyrimidine-2,4(1H,3H)-dione], the IC50 falls from 0.44 µM to 0.052 µM (8.5-fold).

First: CCCn1c(=O)c2c(C)c(C(=O)N3CCC(O)(CO)CC3)sc2n(CCC(F)(F)F)c1=O [Example 77, 6-{[4-Hydroxy-4-(hydroxymethyl)piperidin-1-yl]carbonyl}-5-methyl-3-propyl-1-(3,3,3-trifluoropropyl)thieno[2,3-d]pyrimidine-2,4(1H,3H)-dione]
Second: CCn1c(=O)c2c(C(C)F)c(C(=O)N3CCC(C)(O)CC3)sc2n(CCC(F)(F)F)c1=O (racemic) [Example 146, 3-Ethyl-5-(1-fluoroethyl)-6-[(4-hydroxy-4-methylpiperidin-1-yl)carbonyl]-1-(3,3,3-trifluoropropyl)thieno[2,3-d]pyrimidine-2,4(1H,3H)-dione]
The IC50 of the first is 1.9-fold higher: 0.075 µM for the first, 0.04 µM for the second.

Compared with `CC1(O)CCN(C(=O)c2sc3c(c2C(F)F)c(=O)n(CCc2ccccc2)c(=O)n3CCC(F)(F)F)CC1` [Example 85, 5-(Difluoromethyl)-6-[(4-hydroxy-4-methylpiperidin-1-yl)carbonyl]-3-(2-phenylethyl)-1-(3,3,3-trifluoropropyl)thieno[2,3-d]pyrimidine-2,4(1H,3H)-dione], `COC(Cn1c(=O)c2c(C)c(C(=O)N3CCC(O)CC3)sc2n(CCC(F)(F)F)c1=O)c1ccccc1` (single isomer, unassigned; enantiomer 2) [Example 47, 6-[(4-Hydroxypiperidin-1-yl)carbonyl]-3-(2-methoxy-2-phenylethyl)-5-methyl-1-(3,3,3-trifluoropropyl)thieno[2,3-d]pyrimidine-2,4(1H,3H)-dione (enantiomer 2)] is 2.2-fold lower in IC50: 0.0095 µM for the first, 0.0044 µM for the second. The second is the more potent here.

Going from `Cc1c(C(=O)N2CCNC(=O)C2)sc2c1c(=O)n(CC(F)(F)c1ccccc1)c(=O)n2CCC(F)(F)F` [Example 93, 3-(2,2-Difluoro-2-phenylethyl)-5-methyl-6-[(3-oxopiperazin-1-yl)carbonyl]-1-(3,3,3-trifluoropropyl)thieno[2,3-d]pyrimidine-2,4(1H,3H)-dione] to `Cc1c(C(=O)N2CCC(O)CC2)sc2c1c(=O)n(CC(C)(C)c1ccccc1)c(=O)n2CCC(F)(F)F` [Example 50, 6-[(4-Hydroxypiperidin-1-yl)carbonyl]-5-methyl-3-(2-methyl-2-phenylpropyl)-1-(3,3,3-trifluoropropyl)thieno[2,3-d]pyrimidine-2,4(1H,3H)-dione], the IC50 rises from 0.036 µM to 0.15 µM (4.2-fold). The first is the more potent here.

First: Cc1c(C(=O)N2CCC(O)CC2)sc2c1c(=O)n(CCc1ccccc1F)c(=O)n2CCC=C(F)F [Example 5, 1-(4,4-Difluorobut-3-en-1-yl)-3-[2-(2-fluorophenyl)ethyl]-6-[(4-hydroxypiperidin-1-yl)carbonyl]-5-methylthieno[2,3-d]pyrimidine-2,4(1H,3H)-dione]
Second: Cc1c(C(=O)N2CCC(O)CC2)sc2c1c(=O)n(CC(C)(O)c1ccccc1)c(=O)n2CCC(F)(F)F (single isomer, unassigned) [Example 132, 3-(2-Hydroxy-2-phenylpropyl)-6-[(4-hydroxypiperidin-1-yl)carbonyl]-5-methyl-1-(3,3,3-trifluoropropyl)thieno[2,3-d]pyrimidine-2,4(1H,3H)-dione]
The IC50 of the first is 2.2-fold higher: 0.052 µM for the first, 0.024 µM for the second. The second is the more potent here.

Compared with `CCn1c(=O)c2c(C)c(C(=O)N3CCC(O)CC3)sc2n(CC2CC2(F)F)c1=O` (racemic) [Example 59, 1-[(2,2-Difluorocyclopropyl)methyl]-3-ethyl-6-[(4-hydroxypiperidin-1-yl)carbonyl]-5-methylthieno[2,3-d]pyrimidine-2,4(1H,3H)-dione (racemate)], `CCn1c(=O)c2c(CF)c(C(=O)N3CCC(O)CC3)sc2n(CCC(F)(F)F)c1=O` [Example 143, 3-Ethyl-5-(fluoromethyl)-6-[(4-hydroxypiperidin-1-yl)carbonyl]-1-(3,3,3-trifluoropropyl)thieno[2,3-d]pyrimidine-2,4(1H,3H)-dione] is 4.5-fold lower in IC50: 0.37 µM for the first, 0.082 µM for the second.

Going from `Cc1c(C(=O)N2CCC(O)CC2)sc2c1c(=O)n(CC(C)(O)c1ccccc1)c(=O)n2CCC(F)(F)F` (single isomer, unassigned) [Example 133, 3-(2-Hydroxy-2-phenylpropyl)-6-[(4-hydroxypiperidin-1-yl)carbonyl]-5-methyl-1-(3,3,3-trifluoropropyl)thieno[2,3-d]pyrimidine-2,4(1H,3H)-dione] to `Cc1c(C(=O)N2CCC(O)CC2)sc2c1c(=O)n(CCn1ccnc1)c(=O)n2CCC(F)(F)F` [Example 55, 6-[(4-Hydroxypiperidin-1-yl)carbonyl]-3-[2-(1H-imidazol-1-yl)ethyl]-5-methyl-1-(3,3,3-trifluoropropyl)thieno[2,3-d]pyrimidine-2,4(1H,3H)-dione], the IC50 falls from 0.85 µM to 0.25 µM (3.4-fold). The second is the more potent here.

Source: patent US9604996B2 (Bayer Pharma Aktiengesellschaft, priority 2013, dated 2017)
